Results published in ChEMBL document CHEMBL1201861, “Genomics of Drug Sensitity in Cancer screening data, Wellcome Trust Sanger Institute”.

system: RO82-W-1; test: cells; assay type: functional, cell-based, Homo sapiens; conditions: Homo sapiens, RO82-W-1;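 note: growth inhibition of human RO82-W-1 cells, measured with a cell viability assay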
Description: SANGER: Inhibition of human RO82-W-1 cell growth in a cell viability assay.

Structure (SMILES) | IC50 [nM]
COc1cccc2c1C(=O)c1c(O)c3c(c(O)c1C2=O)C[C@@](O)(C(=O)CO)C[C@@H]3O[C@H]1C[C@H](N)[C@H](O)[C@H](C)O1 [DOXORUBICIN] | > 1020

system: HSC-2; test: cells; assay type: functional, cell-based, Homo sapiens; conditions: Homo sapiens, HSC-2;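 note: growth inhibition of human HSC-2 cells, read out by a cell viability assay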
Description: SANGER: Inhibition of human HSC-2 cell growth in a cell viability assay.

Structure (SMILES) | IC50 [nM]
COc1cccc2c1C(=O)c1c(O)c3c(c(O)c1C2=O)C[C@@](O)(C(=O)CO)C[C@@H]3O[C@H]1C[C@H](N)[C@H](O)[C@H](C)O1 [DOXORUBICIN] | 26.8

system: NCI-H596; test: cells; assay type: functional, cell-based, Homo sapiens; conditions: Homo sapiens, NCI-H596;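 note: growth inhibition of NCI-H596 cells, read out with a cell viability assay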
Description: SANGER: Inhibition of human NCI-H596 cell growth in a cell viability assay.

Structure (SMILES) | IC50 [nM]
COc1cccc2c1C(=O)c1c(O)c3c(c(O)c1C2=O)C[C@@](O)(C(=O)CO)C[C@@H]3O[C@H]1C[C@H](N)[C@H](O)[C@H](C)O1 [DOXORUBICIN] | 108

system: NCI-H1573; test: cells; assay type: functional, cell-based, Homo sapiens; conditions: Homo sapiens, NCI-H1573;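 note: growth inhibition of NCI-H1573 cells, read out with a cell viability assay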
Description: SANGER: Inhibition of human NCI-H1573 cell growth in a cell viability assay.

Structure (SMILES) | IC50 [nM]
COc1cccc2c1C(=O)c1c(O)c3c(c(O)c1C2=O)C[C@@](O)(C(=O)CO)C[C@@H]3O[C@H]1C[C@H](N)[C@H](O)[C@H](C)O1 [DOXORUBICIN] | > 1020

system: LOUCY; test: cells; assay type: functional, cell-based, Homo sapiens; conditions: Homo sapiens, LOUCY;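 note: growth inhibition of human LOUCY cells, read out with a cell viability assay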
Description: SANGER: Inhibition of human LOUCY cell growth in a cell viability assay.

Structure (SMILES) | IC50 [nM]
COc1cccc2c1C(=O)c1c(O)c3c(c(O)c1C2=O)C[C@@](O)(C(=O)CO)C[C@@H]3O[C@H]1C[C@H](N)[C@H](O)[C@H](C)O1 [DOXORUBICIN] | 21.3

system: SAS; test: cells; assay type: functional, cell-based, Homo sapiens; conditions: Homo sapiens, SAS;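 note: growth inhibition of SAS cells, read out with a cell viability assay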
Description: SANGER: Inhibition of human SAS cell growth in a cell viability assay.

Structure (SMILES) | IC50 [nM]
COc1cccc2c1C(=O)c1c(O)c3c(c(O)c1C2=O)C[C@@](O)(C(=O)CO)C[C@@H]3O[C@H]1C[C@H](N)[C@H](O)[C@H](C)O1 [DOXORUBICIN] | 114

system: RMG-I; test: cells; assay type: functional, cell-based, Homo sapiens; conditions: Homo sapiens, RMG-I;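 note: growth inhibition of human RMG-I cells, read out with a cell viability assay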
Description: SANGER: Inhibition of human RMG-I cell growth in a cell viability assay.

Structure (SMILES) | IC50 [nM]
COc1cccc2c1C(=O)c1c(O)c3c(c(O)c1C2=O)C[C@@](O)(C(=O)CO)C[C@@H]3O[C@H]1C[C@H](N)[C@H](O)[C@H](C)O1 [DOXORUBICIN] | 514

system: MFE-280; test: cells; assay type: functional, cell-based, Homo sapiens; conditions: Homo sapiens, MFE-280;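 note: growth inhibition of MFE-280 cells, determined with a cell viability readout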
Description: SANGER: Inhibition of human MFE-280 cell growth in a cell viability assay.

Structure (SMILES) | IC50 [nM]
COc1cccc2c1C(=O)c1c(O)c3c(c(O)c1C2=O)C[C@@](O)(C(=O)CO)C[C@@H]3O[C@H]1C[C@H](N)[C@H](O)[C@H](C)O1 [DOXORUBICIN] | > 1020

system: DG-75; test: cells; assay type: functional, cell-based, Homo sapiens; conditions: Homo sapiens, DG-75;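 note: growth inhibition of DG-75 cells, read out with a cell viability assay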
Description: SANGER: Inhibition of human DG-75 cell growth in a cell viability assay.

Structure (SMILES) | IC50 [nM]
COc1cccc2c1C(=O)c1c(O)c3c(c(O)c1C2=O)C[C@@](O)(C(=O)CO)C[C@@H]3O[C@H]1C[C@H](N)[C@H](O)[C@H](C)O1 [DOXORUBICIN] | 666

system: KARPAS-422; test: cells; assay type: functional, cell-based, Homo sapiens; conditions: Homo sapiens, KARPAS-422
Description: SANGER: Inhibition of human KARPAS-422 cell growth in a cell viability assay.

Structure (SMILES) | IC50 [nM]
COc1cccc2c1C(=O)c1c(O)c3c(c(O)c1C2=O)C[C@@](O)(C(=O)CO)C[C@@H]3O[C@H]1C[C@H](N)[C@H](O)[C@H](C)O1 [DOXORUBICIN] | 193

system: NCI-H661; test: cells; assay type: functional, cell-based, Homo sapiens; conditions: Homo sapiens, NCI-H661;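 note: cell viability assay read-out, IC50 being the concentration that inhibits growth of the cells by half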
Description: SANGER: Inhibition of human NCI-H661 cell growth in a cell viability assay.

Structure (SMILES) | IC50 [nM]
COc1cccc2c1C(=O)c1c(O)c3c(c(O)c1C2=O)C[C@@](O)(C(=O)CO)C[C@@H]3O[C@H]1C[C@H](N)[C@H](O)[C@H](C)O1 [DOXORUBICIN] | 49

system: COR-L105; test: cells; assay type: functional, cell-based, Homo sapiens; conditions: Homo sapiens, COR-L105;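 note: cell growth inhibition determined with a viability assay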
Description: SANGER: Inhibition of human COR-L105 cell growth in a cell viability assay.

Structure (SMILES) | IC50 [nM]
COc1cccc2c1C(=O)c1c(O)c3c(c(O)c1C2=O)C[C@@](O)(C(=O)CO)C[C@@H]3O[C@H]1C[C@H](N)[C@H](O)[C@H](C)O1 [DOXORUBICIN] | 189

system: HT-1376; test: cells; assay type: functional, cell-based, Homo sapiens; conditions: Homo sapiens, HT-1376
Description: SANGER: Inhibition of human HT-1376 cell growth in a cell viability assay.

Structure (SMILES) | IC50 [nM]
COc1cccc2c1C(=O)c1c(O)c3c(c(O)c1C2=O)C[C@@](O)(C(=O)CO)C[C@@H]3O[C@H]1C[C@H](N)[C@H](O)[C@H](C)O1 [DOXORUBICIN] | 189

system: P12-Ichikawa; test: cells; assay type: functional, cell-based, Homo sapiens; conditions: Homo sapiens, P12-Ichikawa

Structure (SMILES) | IC50 [nM]
COc1cccc2c1C(=O)c1c(O)c3c(c(O)c1C2=O)C[C@@](O)(C(=O)CO)C[C@@H]3O[C@H]1C[C@H](N)[C@H](O)[C@H](C)O1 [DOXORUBICIN] | 49.3

system: UMC-11; test: cells; assay type: functional, cell-based, Homo sapiens; conditions: Homo sapiens, UMC-11;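 note: growth inhibition of UMC-11 cells, read out with a cell viability assay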
Description: SANGER: Inhibition of human UMC-11 cell growth in a cell viability assay.

Structure (SMILES) | IC50 [nM]
COc1cccc2c1C(=O)c1c(O)c3c(c(O)c1C2=O)C[C@@](O)(C(=O)CO)C[C@@H]3O[C@H]1C[C@H](N)[C@H](O)[C@H](C)O1 [DOXORUBICIN] | 331

system: SK-N-AS; test: cells; assay type: functional, cell-based, Homo sapiens; conditions: Homo sapiens, SK-N-AS;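 note: growth inhibition of human SK-N-AS cells, measured with a cell viability assay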
Description: SANGER: Inhibition of human SK-N-AS cell growth in a cell viability assay.

Structure (SMILES) | IC50 [nM]
COc1cccc2c1C(=O)c1c(O)c3c(c(O)c1C2=O)C[C@@](O)(C(=O)CO)C[C@@H]3O[C@H]1C[C@H](N)[C@H](O)[C@H](C)O1 [DOXORUBICIN] | > 1020

system: BEN; test: cells; assay type: functional, cell-based, Homo sapiens; conditions: Homo sapiens, BEN;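 note: growth inhibition of the BEN cell line, read out with a cell viability assay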
Description: SANGER: Inhibition of human BEN cell growth in a cell viability assay.

Structure (SMILES) | IC50 [nM]
COc1cccc2c1C(=O)c1c(O)c3c(c(O)c1C2=O)C[C@@](O)(C(=O)CO)C[C@@H]3O[C@H]1C[C@H](N)[C@H](O)[C@H](C)O1 [DOXORUBICIN] | > 1020

system: NCI-H2009; test: cells; assay type: functional, cell-based, Homo sapiens; conditions: Homo sapiens, NCI-H2009;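 note: cell viability assay measuring inhibition of NCI-H2009 cell growth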
Description: SANGER: Inhibition of human NCI-H2009 cell growth in a cell viability assay.

Structure (SMILES) | IC50 [nM]
COc1cccc2c1C(=O)c1c(O)c3c(c(O)c1C2=O)C[C@@](O)(C(=O)CO)C[C@@H]3O[C@H]1C[C@H](N)[C@H](O)[C@H](C)O1 [DOXORUBICIN] | 51.8

system: AGS; test: cells; assay type: functional, cell-based, Homo sapiens; conditions: Homo sapiens, AGS;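 note: growth inhibition of AGS cells, determined with a cell viability assay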
Description: SANGER: Inhibition of human AGS cell growth in a cell viability assay.

Structure (SMILES) | IC50 [nM]
COc1cccc2c1C(=O)c1c(O)c3c(c(O)c1C2=O)C[C@@](O)(C(=O)CO)C[C@@H]3O[C@H]1C[C@H](N)[C@H](O)[C@H](C)O1 [DOXORUBICIN] | 13.3

system: SNU-16; test: cells; assay type: functional, cell-based, Homo sapiens; conditions: Homo sapiens, SNU-16;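 note: growth inhibition of human SNU-16 cells, determined with a cell viability readout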
Description: SANGER: Inhibition of human NCI-SNU-16 cell growth in a cell viability assay.

Structure (SMILES) | IC50 [nM]
COc1cccc2c1C(=O)c1c(O)c3c(c(O)c1C2=O)C[C@@](O)(C(=O)CO)C[C@@H]3O[C@H]1C[C@H](N)[C@H](O)[C@H](C)O1 [DOXORUBICIN] | > 1020

system: T84; test: cells; assay type: functional, cell-based, Homo sapiens; conditions: Homo sapiens, T84;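 note: growth inhibition measured with a cell viability readout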
Description: SANGER: Inhibition of human T84 cell growth in a cell viability assay.

Structure (SMILES) | IC50 [nM]
COc1cccc2c1C(=O)c1c(O)c3c(c(O)c1C2=O)C[C@@](O)(C(=O)CO)C[C@@H]3O[C@H]1C[C@H](N)[C@H](O)[C@H](C)O1 [DOXORUBICIN] | 57.1

system: CAL-72; test: cells; assay type: functional, cell-based, Homo sapiens; conditions: Homo sapiens, CAL-72;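 note: cell viability assay measuring inhibition of proliferation in the CAL-72 cell line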
Description: SANGER: Inhibition of human CAL-72 cell growth in a cell viability assay.

Structure (SMILES) | IC50 [nM]
COc1cccc2c1C(=O)c1c(O)c3c(c(O)c1C2=O)C[C@@](O)(C(=O)CO)C[C@@H]3O[C@H]1C[C@H](N)[C@H](O)[C@H](C)O1 [DOXORUBICIN] | 841
